# Laboratory results from patent EP3375430A1, “FRAGRANCE COMPOSITIONS” (Takasago International Corporation, priority 2017, dated 2018).
# Legend:
# [1] = Headspace concentration of fragrance ingredients over blotter (thermal desorption GC-MS); format: physicochemical; details: fragrance TAK; T0 + 8h; Figure 4
# Description: The headspace concentration of individual ingredients of fragrance TAK, as formulated in either a conventional EdT (EdT1) or a fragrance composition of the invention (C1), was assessed by the method described below.
# A 10 cm length was cut from a standard perfumers' blotter. A sample of 100µL volume was applied to the upper surface of the blotter with a syringe. The blotter was placed on a hot plate thermostatted at 32°C and left to equilibrate for 5 minutes. Two desorption tubes (6cm length 4mm internal diameter) each containing 2 cm length of Tenax TA adsorbent were fitted to the glass part of a headspace apparatus shown in figure 9. The glass part was fitted over the blotter, a metering pump was connected to one of the desorption tubes and air was drawn through the apparatus flushing the headspace over the blotter at a rate of 17mL/min. Sampling continued for about 16.5 minutes until 280mL of air had been extracted. Then the outlet desorption tube was analysed by gas chromatography as described below. The glass part was removed from the blotter which was left on the hotplate until the next sampling time when two fresh desorption tubes were fitted and the extraction procedure repeated for a further 280mL of extracted headspace.
# • Initial Temp: 50°C • Initial Time: 5 min • Rate: 3°C /min • Final Temp: 250°C • Final Time: 20 min • Run Time: 91.67 min
# • Column: HP-5MS 30m * 0.25mm * 0.25µm • Gas: Helium • Constant pressure 12.675 psi
# • Initial Temp: -30°C • Equilibration Time: 0.05 min • Initial Time: 0.00 min • Rate 12°C / min • End Temp: 260°C • Hold Time: 10 min
# Temperature program • Initial Temp: 35°C • Delay Time: 0.30 min • Initial Time: 0.00 min • Rate: 30°C / min • End Temp: 250°C • Hold Time: 5.00 min
# TDU Settings • Transfer Temp: 250°C • Transfer Temp Mode: Fixed • Desorption Mode: splitless • Sample mode: Retain tube - standby cooling • Standby Temp: 50°C
# Detector MS • MS 5973 • Mass range: 35 to 350 • Threshold: 150 • Mass Quad: 150°C • Mass Source: 230°C
# Following the procedure of example 2, the headspace concentration of representative ingredients of fragrance COM1 was determined. COM1 was dosed at 5 and 20 % either in control EdT3 and EdT4 or in compositions of the invention C7 and C8, as shown in table 10.
# The headspace concentration of individual ingredients of fragrance TAK (see Table 1), as formulated in either a conventional EdT (EdT1) or fragrance compositions of the invention (C14, C15), was assessed by the method described in example 2.
# [2] = Amount of fragrance ingredients retained on paper blotter after evaporation (ethanol extraction, GC-MS); format: physicochemical
# Description: A fragrance (hereafter fragrance TAK, the formulation of which is shown in table 1) was formulated in a typical Eau de Toilette (EdT1) or in fragrance compositions according to the invention (compositions C1 to C4), as shown in table 2. The amount of individual fragrance ingredients retained on paper substrate (blotter) after set time periods was assessed by the following method.
# 100µL samples of either EdT1 or compositions C1 to C4 were applied to 4.5cm long standard paper blotters with a microsyringe. Three replicate blotters were prepared for each extraction time. After the appropriate evaporation time each of the 3 blotters was transferred to a 30mL glass bottle. 3mL of ethanol and 50µL of a 1% solution of methyl decanoate in ethanol as an internal standard were added. The bottle was sealed and placed on a roller bed to extract the blotter for 1 hour. A sample of the extracting solution was transferred to a vial which was sealed and analysed by gas chromatography (GC 6890) with a Mass Spectrometer detector (MS 5973) using the method described below. The results of the three replicate measurements were averaged. At exact times the same extraction was repeated on the remaining blotters which were stored on a warm surface at 32°C open to the air to allow evaporation. The gas chromatography conditions were as given below.
# • Initial Temp: 50°C • Initial Time: 2 min • Rate: 10°C /min • Final Temp: 280°C • Final Time: 5 min • Run Time: 30 min
# • Column: HP-5MS 30m * 0.25mm * 0.25µm • Gas: Helium • Constant Pressure 18.55 psi
# • Split mode Ratio 40:1 • Inlet Temp: 250°C
# • MS 5973 • Mass range: 35 to 350 • Threshold: 100 • Mass Quad: 150°C • Mass Source: 230°C
# To simplify the results the average amount of each fragrance ingredient from the 3 samples measured at time zero was set at 100% and all other measurements were then related to that value so tables 3 to 6 show decreasing amounts of fragrance ingredients as a percentage of the initial amount.
# The method of example 1 was repeated using a commercial fragrance (hereafter fragrance COM1, the formulation of which is given in table 7) formulated in a typical Eau de Toilette (EdT2) or in fragrance compositions according to the invention (compositions C5 and C6), as shown in table 8.
compound,measurement,setting,value
"CC/C=C\CCOC(=O)c1ccccc1O [Cis 3-hexenyl salicylate, Cis-3-hexenyl salicylate]",headspace concentration in composition C1 compared to control EdT1,[1],lower
same,amount of fragrance ingredient retained on blotter (percentage of the initial amount),"[2]; Table 3, fragrance TAK in C1, 15 min, 32°C",76%
same,amount of fragrance ingredient retained on blotter (percentage of the initial amount),"[2]; Table 3, fragrance TAK in C1, 60 min, 32°C",77%
same,amount of fragrance ingredient retained on blotter (percentage of the initial amount),"[2]; Table 3, fragrance TAK in C1, 120 min, 32°C",75%
same,amount of fragrance ingredient retained on blotter (percentage of the initial amount),"[2]; Table 3, fragrance TAK in C1, 240 min, 32°C",73%
same,amount of fragrance ingredient retained on blotter (percentage of the initial amount),"[2]; Table 3, fragrance TAK in C1, 480 min, 32°C",60%
same,amount of fragrance ingredient retained on blotter (percentage of the initial amount),"[2]; Table 3, fragrance TAK in EdT1, 15 min, 32°C",96%
same,amount of fragrance ingredient retained on blotter (percentage of the initial amount),"[2]; Table 3, fragrance TAK in EdT1, 60 min, 32°C",87%
same,amount of fragrance ingredient retained on blotter (percentage of the initial amount),"[2]; Table 3, fragrance TAK in EdT1, 120 min, 32°C",85%
same,amount of fragrance ingredient retained on blotter (percentage of the initial amount),"[2]; Table 3, fragrance TAK in EdT1, 240 min, 32°C",80%
same,amount of fragrance ingredient retained on blotter (percentage of the initial amount),"[2]; Table 3, fragrance TAK in EdT1, 480 min, 32°C",32%
same,amount of fragrance ingredient retained on blotter (percentage of the initial amount),"[2]; Table 3, fragrance TAK in EdT1 or C1, T0, set at 100% (normalisation)",100%
same,amount of fragrance ingredient retained on blotter (percentage of the initial amount),"[2]; Table 4, fragrance TAK in C2, 15 min, 32°C",99%
same,amount of fragrance ingredient retained on blotter (percentage of the initial amount),"[2]; Table 4, fragrance TAK in C2, 480 min, 32°C",63%
same,amount of fragrance ingredient retained on blotter (percentage of the initial amount),"[2]; Table 4, fragrance TAK in EdT1, 15 min, 32°C",84%
same,amount of fragrance ingredient retained on blotter (percentage of the initial amount),"[2]; Table 4, fragrance TAK in EdT1, 480 min, 32°C",32%
same,amount of fragrance ingredient retained on blotter (percentage of the initial amount),"[2]; Table 4, fragrance TAK in EdT1 or C2, T0, set at 100% (normalisation)",100%
same,amount of fragrance ingredient retained on blotter (percentage of the initial amount),"[2]; Table 5, fragrance TAK in C3, 15 min, 32°C",78%
same,amount of fragrance ingredient retained on blotter (percentage of the initial amount),"[2]; Table 5, fragrance TAK in C3, 60 min, 32°C",84%
same,amount of fragrance ingredient retained on blotter (percentage of the initial amount),"[2]; Table 5, fragrance TAK in C3, 120 min, 32°C",83%
same,amount of fragrance ingredient retained on blotter (percentage of the initial amount),"[2]; Table 5, fragrance TAK in C3, 240 min, 32°C",82%
same,amount of fragrance ingredient retained on blotter (percentage of the initial amount),"[2]; Table 5, fragrance TAK in C3, 480 min, 32°C",61%
same,amount of fragrance ingredient retained on blotter (percentage of the initial amount),"[2]; Table 5, fragrance TAK in C3, 1440 min, 32°C",50%
same,amount of fragrance ingredient retained on blotter (percentage of the initial amount),"[2]; Table 5, fragrance TAK in EdT1, 15 min, 32°C",96%
same,amount of fragrance ingredient retained on blotter (percentage of the initial amount),"[2]; Table 5, fragrance TAK in EdT1, 60 min, 32°C",87%
same,amount of fragrance ingredient retained on blotter (percentage of the initial amount),"[2]; Table 5, fragrance TAK in EdT1, 120 min, 32°C",85%
same,amount of fragrance ingredient retained on blotter (percentage of the initial amount),"[2]; Table 5, fragrance TAK in EdT1, 240 min, 32°C",80%
same,amount of fragrance ingredient retained on blotter (percentage of the initial amount),"[2]; Table 5, fragrance TAK in EdT1, 480 min, 32°C",32%
same,amount of fragrance ingredient retained on blotter (percentage of the initial amount),"[2]; Table 5, fragrance TAK in EdT1, 1440 min, 32°C",14%
same,amount of fragrance ingredient retained on blotter (percentage of the initial amount),"[2]; Table 5, fragrance TAK in EdT1 or C3, T0, set at 100% (normalisation)",100%
same,amount of fragrance ingredient retained on blotter (percentage of the initial amount),"[2]; Table 6, fragrance TAK in C4, 15 min, 32°C",92%
same,amount of fragrance ingredient retained on blotter (percentage of the initial amount),"[2]; Table 6, fragrance TAK in C4, 60 min, 32°C",84%
same,amount of fragrance ingredient retained on blotter (percentage of the initial amount),"[2]; Table 6, fragrance TAK in C4, 120 min, 32°C",93%
same,amount of fragrance ingredient retained on blotter (percentage of the initial amount),"[2]; Table 6, fragrance TAK in C4, 240 min, 32°C",94%
same,amount of fragrance ingredient retained on blotter (percentage of the initial amount),"[2]; Table 6, fragrance TAK in C4, 480 min, 32°C",65%
same,amount of fragrance ingredient retained on blotter (percentage of the initial amount),"[2]; Table 6, fragrance TAK in EdT1, 15 min, 32°C",96%
same,amount of fragrance ingredient retained on blotter (percentage of the initial amount),"[2]; Table 6, fragrance TAK in EdT1, 60 min, 32°C",87%
same,amount of fragrance ingredient retained on blotter (percentage of the initial amount),"[2]; Table 6, fragrance TAK in EdT1, 120 min, 32°C",85%
same,amount of fragrance ingredient retained on blotter (percentage of the initial amount),"[2]; Table 6, fragrance TAK in EdT1, 240 min, 32°C",80%
same,amount of fragrance ingredient retained on blotter (percentage of the initial amount),"[2]; Table 6, fragrance TAK in EdT1, 480 min, 32°C",32%
same,amount of fragrance ingredient retained on blotter (percentage of the initial amount),"[2]; Table 6, fragrance TAK in EdT1 or C4, T0, set at 100% (normalisation)",100%
